Data as given in patent publication US5714347A (priority 1995, dated 1998).
Read-outs that look alike come from different tables or passages of the source.

How the values were obtained:
[1] = tested on: periplasmic carboxypeptidase in E. coli BL21 (DE3) extracts; type: biochemical
Procedure: The pI shift upon incubation of ubiquitin with carboxypeptidase B was used as a convenient assay to test for carboxyl terminal glycine dipeptide processing in E. coli BL21 (DE3) extracts.
We tested a variety of metal salts for the ability to inhibit ubiquitin inactivation.

carboxypeptidase B = assay: pI shift assay (isoelectric focusing after carboxypeptidase B) for intact carboxyl terminal glycine dipeptide
Excerpt: Previous work has shown that the carboxyl terminal glycine dipeptide of ubiquitin is acutely sensitive to cleavage by trypsin-like activities (Haas, A. L., et al., J. Biol. Chem. 260:4694-4703, 1985; Wilkinson, K. D. and Audhya, T. K., J. Biol. Chem. 256:9235-9241, 1981). […] The specificity of carboxypeptidase B for lysine and arginine precludes a similar pI shift for intact ubiquitin in which R74 is masked by the glycine dipeptide (Haas, A. L., et al., supra, 1985).

[2] = tested on: rabbit reticulocyte ubiquitin activating enzyme (E1); type: biochemical
Procedure: The incorporation of ^32 PPi into ATP was measured by adsorbing the resulting ^32 P-labeled ATP onto charcoal and counting the bound radioactivity by Cerenkov radiation (Haas, A. L. and Rose, I. A., supra, 1982). Nonspecifically-bound ^32 PPi was corrected by subtracting radioactivity in control incubations conducted in the absence of added E1 (Haas, A. L. and Rose, I. A., supra, 1982).
Since these measurements were conducted in the absence of added AMP, the kinetic constants reflect step 3 of the E1 reaction involving formation of the final ternary complex (Haas, A. L. and Rose, I. A. J. Biol. Chem., .supra, 1982).

[3] = tested on: A549 human lung carcinoma cell extract; assay: In vitro conjugation of 125I-UCRP to cellular proteins; type: biochemical; settings: for inhibition of 125I-UCRP conjugation by excess unlabeled protein: isotope dilution, parallel incubations
Procedure: Confluent monolayer cultures of A549 human lung carcinoma cells were grown in Dulbecco's modified Eagle's medium supplemented with 10% (v/v) heat-inactivated fetal bovine serum. Cultures were maintained at 37° C. in a humidified 5% CO2 atmosphere. Cultures of A549 cells were induced by adding IFNβ to a final concentration of 1000 IU/ml (Loeb, K. R. and Haas, A. L., supra, 1992). Following 24 hours induction, cells were rinsed twice with PBS then harvested by scraping directly into 50 mM Tris-Cl (pH 7.6) containing 2 mMATP, 10 mM MgCl2, and 1 mM DTT (100 μl/100 mm plate). The cells were then briefly sonicated and the extracts used without further fractionation.

[4] = tested on: rabbit reticulocyte ubiquitin activating enzyme (E1); settings: cited from earlier work
[5] = tested on: A549 human lung carcinoma cell extract; settings: previous preparations, Loeb and Haas 1992; Loeb 1993; cited from earlier work
[6] = target: T1, ubiquitin activating enzyme (E1) (Oryctolagus cuniculus, UniProt Q29504); assay: Stoichiometry and kinetics of E1-bound adenylate formation (TCA-precipitable radioactivity with [2,8-3H]ATP); type: biochemical; settings: for [3H]adenylate formation: 1 pmol of E1, inorganic pyrophosphatase
T1 construct: from rabbit reticulocytes, rabbit liver, and human erythrocytes; from tissue; host or cells: rabbit reticulocytes (inferred for this assay)
T1 sequence (Q29504 1-1058): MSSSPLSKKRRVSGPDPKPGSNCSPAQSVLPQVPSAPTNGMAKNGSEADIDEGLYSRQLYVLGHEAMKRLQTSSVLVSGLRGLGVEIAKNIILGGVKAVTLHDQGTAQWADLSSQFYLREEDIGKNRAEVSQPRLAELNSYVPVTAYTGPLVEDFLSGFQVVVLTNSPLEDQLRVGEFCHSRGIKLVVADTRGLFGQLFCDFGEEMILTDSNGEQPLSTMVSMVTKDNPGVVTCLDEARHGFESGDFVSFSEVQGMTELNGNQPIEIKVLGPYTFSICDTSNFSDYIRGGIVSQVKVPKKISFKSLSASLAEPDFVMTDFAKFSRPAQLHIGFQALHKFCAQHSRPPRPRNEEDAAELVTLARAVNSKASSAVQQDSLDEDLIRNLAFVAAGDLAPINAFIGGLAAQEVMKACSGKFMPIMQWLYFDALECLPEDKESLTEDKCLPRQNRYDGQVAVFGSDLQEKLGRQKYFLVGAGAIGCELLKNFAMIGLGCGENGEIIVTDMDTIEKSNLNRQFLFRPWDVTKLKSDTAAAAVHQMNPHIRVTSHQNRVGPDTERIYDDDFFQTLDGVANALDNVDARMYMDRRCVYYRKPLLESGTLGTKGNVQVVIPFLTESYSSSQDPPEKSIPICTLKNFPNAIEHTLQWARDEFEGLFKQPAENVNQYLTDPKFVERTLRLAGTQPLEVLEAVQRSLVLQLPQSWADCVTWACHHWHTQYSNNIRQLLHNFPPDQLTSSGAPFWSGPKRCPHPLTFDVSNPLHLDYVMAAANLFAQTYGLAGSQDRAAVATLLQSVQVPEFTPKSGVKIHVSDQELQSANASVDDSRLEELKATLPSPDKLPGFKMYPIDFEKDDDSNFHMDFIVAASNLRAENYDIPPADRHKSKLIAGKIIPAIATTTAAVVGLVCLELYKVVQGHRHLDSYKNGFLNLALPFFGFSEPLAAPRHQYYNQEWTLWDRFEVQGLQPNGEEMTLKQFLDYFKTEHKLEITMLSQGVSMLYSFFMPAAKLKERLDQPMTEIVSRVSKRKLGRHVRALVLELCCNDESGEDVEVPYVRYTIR
Excerpt: Recent studies by Burch and Haas have shown that mutagenesis of specific ubiquitin residues sufficiently compromises binding of the resulting adenylate within the E1 active site to allow dissociation of the intermediate (Burch, T. J. and Haas, A. L., supra, 1994). The free but not the bound pool of ubiquitin [^3 H]adenylate is sensitive to cleavage by ubiquitin carboxyl terminal hydrolase (Burch, T. J. and Haas, A. L., supra, 1994; Pickart, C. M. and Rose, I. A., J. Biol. Chem. 260:7903-7910,1985).

[Cl][Cd][Cl] [CdCl2]
inhibiting UCRP inactivation [1]: effective

[Cl-].[Cl-].[Co+2] [CoCl2]
ubiquitin and UCRP glycine dipeptide excision ([1]; 5 mM): quantitatively blocks | inhibiting ubiquitin inactivation ([1]; among the metal salts tested): most effective

O=C(O)CN(CCN(CC(=O)O)CC(=O)O)CC(=O)O [EDTA]
rate of ubiquitin inactivation [1]: stimulated

[Cl][Hg][Cl] [HgCl2]
inhibiting UCRP inactivation [1]: effective

UCRP generated from UCRP-R: Intact UCRP resulting from removal of the arginine cap of purified UCRP-R
pI shift upon incubation with carboxypeptidase B (carboxypeptidase B): absence of a pI shift | K1/2 ([2]; UCRP 5 to 50 μM, 20 nM E1, 37° C., absence of added AMP (step 3)): 24 µM

^125 I-UCRP: Intact UCRP isolated in the presence of CoCl2, labeled with 125I
dependence of conjugation on ATP and ATP regenerating system ([3]; both extracts): absolutely dependent | rate of conjugation to cellular proteins ([3]; extracts from A549 cultures induced 24 hours with 1000 IU/ml interferon-β (+IFN), versus uninduced): significantly greater | rate of conjugation to cellular proteins ([3]; extracts from uninduced cells (-IFN), 90 minutes incubation): low but measurable rate

pure intact native UCRP: Pure intact native UCRP, K1/2 from Narasimhan et al. 1996
K1/2 ([4]; pure intact native UCRP, Narasimhan et al. 1996 in press): 24 µM

recombinant ^125 I-UCRP: Radioiodinated recombinant UCRP of the previous, proteolytically inactivated preparations
conjugation when added to fresh extracts of A549 cells [5]: unable to demonstrate conjugation

ubiquitin
inhibition of 125I-UCRP conjugation by excess unlabeled protein [3]: not | K1/2 ([4]; step 3 of ubiquitin-supported reaction, values taken from Haas and Rose 1982): 1.2 µM | substrate inhibition ([4]; ubiquitin at high concentrations, Haas and Rose 1982): pronounced substrate inhibition | kcat ([4]; ubiquitin-supported reaction, values taken from Haas and Rose 1982): 9.6 s⁻¹ | first order rate constant of [3H]adenylate formation [6]: ≥ 6 min⁻¹ | [3H]adenylate formation ([6]; within a 1 minute incubation): equivalent amount

ubiquitin cross-reactive protein [UCRP]
inhibition of 125I-UCRP conjugation by excess unlabeled protein [3]: marked inhibition | first order rate constant of [3H]adenylate formation [6]: 0.42 min⁻¹ | [3H]adenylate formation ([6]; after 5 minutes): 0.11 pmol | K1/2 [2]: 24 µM | substrate inhibition [2]: no substrate inhibition
